The values that follow are results of earlier work, collected in patent US20090274673A1, “COMPOSITION FOR TOPICAL TREATMENT OF ACNE” (priority 2008, published 2009).

The subject of one series is Saccharomyces cerevisiae. The conditions noted are these: against Saccharomyces cerevisiae.
In the next series the test system is Bacillus thuringiensis. The conditions noted are these: agar plate diffusion.
The next series relates to Proteus vulgaris. The note with it: agar plate diffusion.
Series [1] concerns Staphylococcus epidermidis. The conditions noted are these: against Staphylococcus epidermidis.
The test system of a further series is protein synthesis. The conditions noted are these: prokaryotes versus eukaryotes.
Series [2] relates to hyper-permeable strains of Escherichia coli SC10909 and BAS847. The note with it: agar plate diffusion; hyper-permeable E. coli SC10909 and BAS847.
The next series relates to Candida albicans. The conditions noted are these: against Candida albicans (a yeast-like fungus).
For a further series, the system named is Staphylococcus aureus. The note with it: agar plate diffusion.
A further series relates to HIV. The conditions noted are these: virus incubated with zinc acetate.
In series [3] the test system is species of Fusarium, Gerlacia, Penicillium, and Aspergillus.

For `C/C(=C/C=C/C=C/C(C)C(=O)O)NC(=O)CC(O)\C(C)=C/C=C\C=C(C)\C=C\C=C/C=C/CNC(=O)C(O)CC(C)C` (centres unmarked) [bacillaene], the inhibitory effect entry in the series on Saccharomyces cerevisiae is listed as “ineffective”; in the series with Bacillus thuringiensis, “moderately potent”; in the series on Proteus vulgaris, “moderately potent”; in series [1], “ineffective”; in series [2], “potent”; in the series with Candida albicans, “ineffective”. Besides, the inhibitory effect result in the series on Staphylococcus aureus is reported as “moderately potent”. Moreover, in the series with Streptomyces avermitilis, the growth inhibition result is recorded as “inhibit the growth”. In the series with protein synthesis, the “selectivity of protein synthesis inhibition” value was “inhibiting protein synthesis only in prokaryotes and not in eukaryotes”.
Take `CC(=O)[O-].CC(=O)[O-].[Zn+2]` [zinc acetate]: the HIV infectivity result with HIV is on record as “reduced”.
Consider Iturin A, for which the growth inhibition result in series [3] was “inhibits the growth”.
